Our source for the IC50 values is BindingDB's records for doi:10.1016/0960-894X(95)00024-N (1995).

SMILES strings stand for the structures.

A short description of the experiment: Concentration required for the in vitro inhibition of Acyl coenzyme A:cholesterol acyltransferase (ACAT) in intestinal microsomes isolated from cholesterol-fed rabbits.

Compound `CCCCCCCn1nnc(C(NC(=O)c2c(C)cccc2C)c2ccccc2)n1` (configuration not stated) [N-[(2-Heptyl-2H-tetrazol-5-yl)-phenyl-methyl]-2,6-dimethyl-benzamide] returned an IC50 of 3700 nM. That is a single-digit micromolar value.

`CCCCCCCCCCCCCCCn1nnc(C(NC(=O)c2c(C)cccc2C)c2ccccc2)n1` (configuration not stated) [2,6-Dimethyl-N-[(2-pentadecyl-2H-tetrazol-5-yl)-phenyl-methyl]-benzamide] displayed an IC50 of 440 nM.

The term IC50 denotes the point on the concentration scale where inhibition reaches its midpoint. High values mean weaker potency, low ones greater potency.
